Values after ≈ are worked out from the molar mass of the structure shown.
What was measured:
Type in all cases: cell-based
[1] = test system: Streptococcus pneumoniae ¼; assay: MIC, standard microdilution technique
Summary of the method: (§1)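 NCCLS M7-A5 dilution protocol for aerobic bacteria; MIC read per that approved standard.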

[2] = test system: Streptococcus pneumoniae 12288; assay: MIC, standard microdilution technique
Summary of the method: as §1

[3] = test system: Streptococcus pneumoniae l/l; assay: MIC, standard microdilution technique
Summary of the method: as §1

[4] = test system: Staphylococcus aureus ATCC 29213; assay: MIC, standard microdilution technique
Summary of the method: as §1

[5] = test system: Staphylococcus aureus 1086; assay: MIC, standard microdilution technique
Summary of the method: as §1

[6] = test system: Staphylococcus aureus 745; assay: MIC, standard microdilution technique
Summary of the method: as §1

[7] = test system: Escherichia coli ATCC 25922; assay: MIC, standard microdilution technique
Summary of the method: as §1

[8] = test system: Streptococcus pneumoniae SL199T; assay: MIC, standard microdilution technique
Summary of the method: as §1

[9] = test system: Haemophilus influenzae B1501; assay: MIC, standard agar dilution method using HTM medium
Summary of the method: (§2)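 NCCLS M7-A5 dilution protocol for aerobic bacteria; H. influenzae strains; MIC read per that standard.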

[10] = test system: Haemophilus influenzae QK50; assay: as above
Summary of the method: as §2

[11] = test system: Haemophilus influenzae QK12/87; assay: as above
Summary of the method: as §2

[12] = test system: Haemophilus influenzae 12214; assay: as above
Summary of the method: as §2

Row | SMILES | minimum inhibitory concentration (MIC), Strain F [1] | minimum inhibitory concentration (MIC), Strain H [2] | minimum inhibitory concentration (MIC), Strain E [3] | minimum inhibitory concentration (MIC), Strain A [4] | minimum inhibitory concentration (MIC), Strain B [5] | minimum inhibitory concentration (MIC), Strain C [6] | minimum inhibitory concentration (MIC), Strain D [7] | minimum inhibitory concentration (MIC), Strain G [8] | minimum inhibitory concentration (MIC), Strain M [9] | minimum inhibitory concentration (MIC), Strain L [10] | minimum inhibitory concentration (MIC), Strain I [11] | minimum inhibitory concentration (MIC), Strain K [12]
1 | CC[C@H]1OC(=O)[C@@](C)(F)C(=O)[C@H](C)[C@@H](O[C@@H]2O[C@H](C)C[C@H](N(C)C)[C@H]2O)[C@](C)(OC)C[C@@H](C)C(=O)[C@H](C)[C@H]2[C@@H](S(=O)(=O)CCCn3cc(-c4ccccc4)cn3)C(=O)O[C@@]21C [Example 11] | 0.25 µg/mL (≈ 0.285 µM) | 16 µg/mL (≈ 18.2 µM) | <=0.06 μg/ml | 0.125 µg/mL (≈ 0.142 µM) | <=0.06 μg/ml | >32 µg/mL | >32 µg/mL | 4 µg/mL (≈ 4.56 µM) | 4 µg/mL (≈ 4.56 µM) | 4 µg/mL (≈ 4.56 µM) | 8 µg/mL (≈ 9.11 µM) | 8 µg/mL (≈ 9.11 µM)
2 | CC[C@H]1OC(=O)[C@H](C)C(=O)[C@H](C)[C@@H](O[C@@H]2O[C@H](C)C[C@H](N(C)C)[C@H]2O)[C@](C)(OC)C[C@@H](C)C(=O)[C@H](C)[C@H]2[C@@H](SCC(=O)c3ccc(N(CC)CC)cc3)C(=O)O[C@@]21C [Example 17] | >32 µg/mL | >32 µg/mL | 1 µg/mL (≈ 1.2 µM) | 16 µg/mL (≈ 19.2 µM) | 8 µg/mL (≈ 9.6 µM) | >32 µg/mL | >32 µg/mL | >32 µg/mL | >32 µg/mL | >32 µg/mL | >32 µg/mL | >32 µg/mL
3 | CC[C@H]1OC(=O)[C@H](C)C(=O)[C@H](C)[C@@H](O[C@@H]2O[C@H](C)C[C@H](N(C)C)[C@H]2O)[C@](C)(OC)C[C@@H](C)C(=O)[C@H](C)[C@H]2[C@@H](SCC(=O)N3CCc4ccccc43)C(=O)O[C@@]21C [Example 18] | 2 µg/mL (≈ 2.49 µM) | >32 µg/mL | <=0.06 μg/ml | 0.25 µg/mL (≈ 0.311 µM) | 0.25 µg/mL (≈ 0.311 µM) | >32 µg/mL | >32 µg/mL | 16 µg/mL (≈ 19.9 µM) | 8 µg/mL (≈ 9.96 µM) | 8 µg/mL (≈ 9.96 µM) | 8 µg/mL (≈ 9.96 µM) | 8 µg/mL (≈ 9.96 µM)
4 | CC[C@H]1OC(=O)[C@H](C)C(=O)[C@H](C)[C@@H](O[C@@H]2O[C@H](C)C[C@H](N(C)C)[C@H]2O)[C@](C)(OC)C[C@@H](C)C(=O)[C@H](C)[C@H]2[C@@H](SCCS(=O)(=O)NCc3ccccc3)C(=O)O[C@@]21C [Example 24] | >32 µg/mL | >32 µg/mL | <=0.06 μg/ml | 2 µg/mL (≈ 2.38 µM) | 1 µg/mL (≈ 1.19 µM) | >32 µg/mL | >32 µg/mL | 32 µg/mL (≈ 38 µM) | 32 µg/mL (≈ 38 µM) | >32 µg/mL | 32 µg/mL (≈ 38 µM) | >32 µg/mL
5 | CC[C@H]1OC(=O)[C@H](C)C(=O)[C@H](C)[C@@H](O[C@@H]2O[C@H](C)C[C@H](N(C)C)[C@H]2O)[C@](C)(OC)C[C@@H](C)C(=O)[C@H](C)[C@H]2[C@@H](SCCNS(=O)(=O)c3cccc4c(N(C)C)cccc34)C(=O)O[C@@]21C [Example 28] | 32 µg/mL (≈ 34.8 µM) | >32 µg/mL | <=0.06 μg/ml | 1 µg/mL (≈ 1.09 µM) | 1 µg/mL (≈ 1.09 µM) | >32 µg/mL | >32 µg/mL | 16 µg/mL (≈ 17.4 µM) | >32 µg/mL | 32 µg/mL (≈ 34.8 µM) | 32 µg/mL (≈ 34.8 µM) | >32 µg/mL
6 | CC[C@H]1OC(=O)[C@H](C)C(=O)[C@H](C)[C@@H](O[C@@H]2O[C@H](C)C[C@H](N(C)C)[C@H]2O)[C@](C)(OC)C[C@@H](C)C(=O)[C@H](C)[C@H]2[C@@H](SCCNS(=O)(=O)c3cccc4cccnc34)C(=O)O[C@@]21C [Example 29] | >32 µg/mL | >32 µg/mL | <=0.06 μg/ml | <=0.06 μg/ml | <=0.06 μg/ml | >32 µg/mL | >32 µg/mL | 2 µg/mL (≈ 2.28 µM) | 8 µg/mL (≈ 9.11 µM) | 8 µg/mL (≈ 9.11 µM) | 8 µg/mL (≈ 9.11 µM) | 8 µg/mL (≈ 9.11 µM)
7 | CC[C@H]1OC(=O)[C@H](C)C(=O)[C@H](C)[C@@H](O[C@@H]2O[C@H](C)C[C@H](N(C)C)[C@H]2O)[C@](C)(OC)C[C@@H](C)C(=O)[C@H](C)[C@H]2[C@@H](SCC(=O)NCc3ccc4c(c3)OCO4)C(=O)O[C@@]21C [Example 30] | 32 µg/mL (≈ 38.3 µM) | >32 µg/mL | <=0.06 μg/ml | 0.125 µg/mL (≈ 0.15 µM) | <=0.06 μg/ml | >32 µg/mL | >32 µg/mL | 16 µg/mL (≈ 19.2 µM) | 8 µg/mL (≈ 9.58 µM) | 16 µg/mL (≈ 19.2 µM) | 16 µg/mL (≈ 19.2 µM) | 16 µg/mL (≈ 19.2 µM)
8 | CC[C@H]1OC(=O)[C@H](C)C(=O)[C@H](C)[C@@H](O[C@@H]2O[C@H](C)C[C@H](N(C)C)[C@H]2O)[C@](C)(OC)C[C@@H](C)C(=O)[C@H](C)[C@H]2[C@@H](SCC(=O)NCc3ccco3)C(=O)O[C@@]21C [Example 31] | >32 µg/mL | >32 µg/mL | <=0.06 μg/ml | 0.5 µg/mL (≈ 0.64 µM) | 0.25 µg/mL (≈ 0.32 µM) | >32 µg/mL | >32 µg/mL | 32 µg/mL (≈ 41 µM) | 8 µg/mL (≈ 10.2 µM) | 8 µg/mL (≈ 10.2 µM) | 8 µg/mL (≈ 10.2 µM) | 8 µg/mL (≈ 10.2 µM)
9 | CC[C@H]1OC(=O)[C@H](C)C(=O)[C@H](C)[C@@H](O[C@@H]2O[C@H](C)C[C@H](N(C)C)[C@H]2O)[C@](C)(OC)C[C@@H](C)C(=O)[C@H](C)[C@H]2[C@@H](SCC(=O)Nc3cc(C)on3)C(=O)O[C@@]21C [Example 33] | >32 µg/mL | >32 µg/mL | <=0.06 μg/ml | 0.5 µg/mL (≈ 0.639 µM) | 0.5 µg/mL (≈ 0.639 µM) | >32 µg/mL | >32 µg/mL | 32 µg/mL (≈ 40.9 µM) | 8 µg/mL (≈ 10.2 µM) | 8 µg/mL (≈ 10.2 µM) | 16 µg/mL (≈ 20.5 µM) | 8 µg/mL (≈ 10.2 µM)
10 | CC[C@H]1OC(=O)[C@H](C)C(=O)[C@H](C)[C@@H](O[C@@H]2O[C@H](C)C[C@H](N(C)C)[C@H]2O)[C@](C)(OC)C[C@@H](C)C(=O)[C@H](C)[C@H]2[C@@H](SCC(=O)NCc3nc4ccccc4s3)C(=O)O[C@@]21C [Example 34] | 8 µg/mL (≈ 9.43 µM) | >32 µg/mL | <=0.06 μg/ml | 0.25 µg/mL (≈ 0.295 µM) | 0.5 µg/mL (≈ 0.59 µM) | >32 µg/mL | >32 µg/mL | >32 µg/mL | 32 µg/mL (≈ 37.7 µM) | >32 µg/mL | 32 µg/mL (≈ 37.7 µM) | >32 µg/mL

Source: patent US6995143B2, “Macrolides with antibacterial activity” (Basilea Pharmaceutica AG, priority 2002, dated 2006)
